# What was measured:
# BMDCs = experiment: Activation of BMDCs using gemcitabine-treated 4T1 breast cancer cell line; assay type: cell-based, mouse; details: gemcitabine-treated breast cancer cell line versus control, FIG. 31D
# Description: (§1) In addition, the activation of BMDCs using a gemcitabine-treated 4T1 breast cancer cell line was confirmed. The 4T1 cells were cultured with 1 μg/mL gemcitabine in a 6-well plate at a density of 2×10^6 cells/well. The gemcitabine-induced apoptosis of the 4T1 breast cancer cells was assessed according to the protocol of the FITC Annexin V Apoptosis kit (BD Biosciences). After 24 hours, a supernatant was collected, and then incubated with BMDCs. A BMDC activation marker was analyzed using an Accuri™ flow cytometer. Antibodies used herein were FITC-anti-CD11c and APC-anti-CD80 (BD Pharmingen).
# [1] = In vitro drug release behavior of soft bio-integrated device; assay type: physicochemical; details: within one week, PBS (pH 7.4), 37° C., FIG. 31A
# Description: A scaffold in which gemcitabine, rhodamine-attached poly(I:C)/nanogel, and a 4T1 cell lysate were loaded was added to 1 mL of PBS (pH 7.4), and stored at 37° C. and 90 rpm. Every selected time interval, the original culture medium was obtained and exchanged with a fresh medium. An amount of gemcitabine released from the scaffold was measured using absorbance (275 nm, UV-1800; Shimadzu, Kyoto, Japan), the rhodamine-attached poly(I:C) was measured according to the protocol of the 5'[…] Nucleic Acid Labeling System (Vector Laboratories), and the 4T1 cell lysate was measured using the BCA assay method (Pierce Biotechnology). Specifically, a fluorescence spectrometer (PerkinElmer) was used to detect and analyze fluorescence at 552 nm (excitation) and 575 nm (emission) from the poly(I:C)/nanogel attached to rhodamine released from the scaffold.
# [2] = tested on: 4T1 breast cancer cell line; experiment: Gemcitabine-induced apoptosis of 4T1 breast cancer cells (FITC Annexin V); assay type: cell-based; details: change in gemcitabine concentration, FIG. 31C
# Description: as §1, with “The 4T1 cells were cultured with 1 μg/mL gemcitabine in a 6-well plate at a density of 2×10^6 cells/well.” left out
# [3] = tested on: myeloid-derived-suppressor cells (MDSCs); experiment: Gemcitabine-induced apoptosis of MDSCs (FITC Annexin V); assay type: cell-based, mouse; details: various gemcitabine concentrations, FIG. 31B
# Description: Gemcitabine induces apoptosis of myeloid-derived-suppressor cells (MDSCs) in vitro. The spleen was extracted from a mouse harboring 4T1 tumors for 28 days, the extracted spleen was ground, and RBCs were removed therefrom using an RBC lysis buffer. The RBC-removed spleen cells were re-dispersed in a MACS buffer (PBS, 0.5% BSA, […]), MDSCs were isolated using an MDSC isolation kit (Miltenyi Biotec). The isolated myeloid-derived-suppressor cells were seeded in a 6-well plate at a density of 2×10^6 cells/well, and incubated with various concentrations of gemcitabine. The gemcitabine-induced apoptosis of the MDSCs was assessed according to the protocol of an FITC Annexin V Apoptosis kit (BD Biosciences).
# 4T1 tumor = experiment: In vivo anticancer effect after tumor resection and implantation of soft bio-integrated device; design: species or system BALB/c mice; details: day 7 and day 14, FIG. 38A
# Description: When 1×10^6 4T1 cells were injected and the size of a growing tumor became 300 mm^3 on day 14 after injection, the tumor was partially resected. A mouse was anesthetized using 2,2,2-tribromoethanol. The surgical site was sterilized with 70% ethanol, and 90% of the tumor was resected so that 10% of the tumor remained. A scaffold was implanted near the remaining part of the tumor.
# On day 7 and day 14 after tumor removal and implantation of a soft bio-integrated device, a mouse was sacrificed, and a tumor, the spleen and a lymph node of the sacrificed mouse were isolated to measure weights thereof.
# The tumor and lymph node were cut into small pieces, dispersed in DMEM containing collagenase D, stored for 1 hour at 37° C. and 90 rpm, and then filtered through a 70-μm strainer. The spleen was physically disrupted, and then RBCs were removed using an RBC lysis buffer. The tumor and spleen dispersed as single cells by the above-described method were analyzed using APC-anti-CD11b and PE-anti-Gr1 antibodies to confirm myeloid-derived-suppressor cells and using APC-anti-CD3, PE-anti-CD4 and FITC-CD8 antibodies to confirm T cells. All antibodies were purchased from BD Pharmingen.
# Moreover, to confirm tumor metastasis, on day 14 after the tumor removal, the mouse was sacrificed to confirm metastasis. […]
smiles,measurement,setting,value
Nc1ccn([C@@H]2O[C@H](CO)[C@@H](O)C2(F)F)c(=O)n1 [gemcitabine],cell maturity of dendritic cells,BMDCs,increased
same,accumulation amount of gemcitabine released from the scaffold,[1],approximately 90%
same,dead cell percentage in breast cancer cell line (4T1),[2],increased as the gemcitabine concentration increased
same,dead cell percentage of MDSCs,[3],increased as the gemcitabine concentration increased
same,MDSC proportion in the tumor and the spleen,4T1 tumor,reduced

# Source: patent US11590076B2, “Cryogel scaffold capable of controlling degree of degradation and soft bio-integrated device in which drug modulating immunosuppressive action in solid microenvironment is loaded in same scaffold” (Research & Business Foundation Sungkyunkwan University, priority 2017, dated 2023)
